The target of experiment [1] is T1, myeloperoxidase (MPO) (Homo sapiens (Human), UniProt P05164). In words: MPO chlorination assay (APF assay). The format is biochemical. The note with it: potency range class. Put shortly: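 Human MPO (200 pM) preincubated 10 min at room temperature with inhibitor and 120 mM NaCl in 100 mM KPi pH 7.4. Reaction started with APF plus 10 μM H2O2, and hypochlorite-generated fluorescein read kinetically (ex 485/em 535 nm) for 3 min. IC50 from linear-phase slopes fitted to a four-parameter equation.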

Experiment [2] concerns the target T1, myeloperoxidase (MPO). The experiment in a line: MPO peroxidation assay (Amplex Red assay). The format is biochemical. Particulars: potency range class. Put shortly: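 Human MPO at 200 pM with 40 nM H2O2 preincubated 10 min at room temperature with inhibitor in 100 mM KPi pH 7.4. Reaction started with Amplex Red mixture (200 μM Amplex Red, 10 mM H2O2); resorufin fluorescence (Ex 535, Em 590 nm) read kinetically for 15 min. IC50 fitted from slopes over 180-540 s.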

What is called IC50 is the concentration at which inhibition is half-maximal. A high value points to weaker potency in that assay.

T1 sequence (P05164 49-745): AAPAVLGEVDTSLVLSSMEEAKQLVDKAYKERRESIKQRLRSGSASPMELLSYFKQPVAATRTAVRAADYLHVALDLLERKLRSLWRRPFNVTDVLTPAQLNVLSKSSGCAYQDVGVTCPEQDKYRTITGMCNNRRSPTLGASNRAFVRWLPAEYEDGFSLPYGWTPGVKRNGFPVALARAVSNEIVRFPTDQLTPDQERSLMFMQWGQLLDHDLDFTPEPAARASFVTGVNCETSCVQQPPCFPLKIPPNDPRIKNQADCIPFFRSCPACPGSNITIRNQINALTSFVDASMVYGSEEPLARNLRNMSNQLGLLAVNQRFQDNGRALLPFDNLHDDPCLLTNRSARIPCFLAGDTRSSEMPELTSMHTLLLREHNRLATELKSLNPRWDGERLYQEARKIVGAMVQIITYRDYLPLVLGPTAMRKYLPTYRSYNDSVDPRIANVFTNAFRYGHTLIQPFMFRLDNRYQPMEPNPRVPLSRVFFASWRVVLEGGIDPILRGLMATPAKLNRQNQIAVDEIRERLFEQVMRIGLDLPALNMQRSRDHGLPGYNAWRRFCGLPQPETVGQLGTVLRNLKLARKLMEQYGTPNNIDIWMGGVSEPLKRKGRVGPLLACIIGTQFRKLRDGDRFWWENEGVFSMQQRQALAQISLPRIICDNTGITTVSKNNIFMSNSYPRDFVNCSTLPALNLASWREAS

For the molecule `COc1cc2cc(Cn3cc(Cc4cc(N)nc5[nH]nnc45)cn3)ccc2cn1` [Example 173, 7-((1-((3-Methoxyisoquinolin-6-yl)methyl)-1H-pyrazol-4-yl)methyl)-3H-[1,2,3]triazolo[4,5-b]pyridin-5-amine], the IC50 on myeloperoxidase (MPO) [1] lay in the range of 101 to 999 nM; against myeloperoxidase (MPO) [2] it was 1 to 100 nM.

With `COc1nccc2ccc(Cn3cc(Cc4cc(N)nc5[nH]nnc45)cn3)cc12` [Example 174, 7-((1-((1-Methoxyisoquinolin-7-yl)methyl)-1H-pyrazol-4-yl)methyl)-3H-[1,2,3]triazolo[4,5-b]pyridin-5-amine], the figures for the IC50 on myeloperoxidase (MPO) [1] and against myeloperoxidase (MPO) [2] were 101 to 999 nM and 1 to 100 nM, respectively.

As for `Nc1cc(Cc2cnn(Cc3ccc4cc[nH]c(=O)c4c3)c2)c2nn[nH]c2n1` [Example 175, 7-((4-((5-Amino-3H-[1,2,3]triazolo[4,5-b]pyridin-7-yl)methyl)-1H-pyrazol-1-yl)methyl)isoquinolin-1(2H)-one], the results for the IC50 at myeloperoxidase (MPO) [1] and on myeloperoxidase (MPO) [2] were 101 to 999 nM and 1 to 100 nM, respectively.

For the molecule `Nc1cc(Cc2cnn(Cc3ccc4c(c3)CNC4)c2)c2nn[nH]c2n1` [Example 176, 7-((1-(Isoindolin-5-ylmethyl)-1H-pyrazol-4-yl)methyl)-3H-[1,2,3]triazolo[4,5-b]pyridin-5-amine], the IC50 on myeloperoxidase (MPO) [1] and against myeloperoxidase (MPO) [2] was 1 to 100 nM in each case.

Take `Nc1cc(Cc2cnn(Cc3cccc(-c4nccs4)c3)c2)c2nn[nH]c2n1` [Example 177, 7-((1-(3-(Thiazol-2-yl)benzyl)-1H-pyrazol-4-yl)methyl)-3H-[1,2,3]triazolo[4,5-b]pyridin-5-amine]: the values for the IC50 against myeloperoxidase (MPO) [1] and at myeloperoxidase (MPO) [2] were 101 to 999 nM and 1 to 100 nM, respectively.

For the molecule `Nc1cc(Cc2cnn(Cc3cccc(-n4cncn4)c3)c2)c2nn[nH]c2n1` [Example 178, 7-((1-(3-(1H-1,2,4-Triazol-1-yl)benzyl)-1H-pyrazol-4-yl)methyl)-3H-[1,2,3]triazolo[4,5-b]pyridin-5-amine], the IC50 is 101 to 999 nM against myeloperoxidase (MPO) [1] and 1 to 100 nM on myeloperoxidase (MPO) [2].

Consider `Cn1nnc2cc(Cn3cc(Cc4cc(N)nc5[nH]nnc45)cn3)ccc21` [Example 179, 7-({1-[(1-Methyl-1H-1,2,3-benzotriazol-5-yl)methyl]-1H-pyrazol-4-yl}methyl)-3H-[1,2,3]triazolo[4,5-b]pyridin-5-amine], for which the IC50 against myeloperoxidase (MPO) [1] was in the range of 101 to 999 nM; against myeloperoxidase (MPO) [2], 1 to 100 nM.

Take `Nc1cc(Cc2cnn(Cc3ccc4ncsc4c3)c2)c2nn[nH]c2n1` [Example 180, 7-{[1-(1,3-Benzothiazol-6-ylmethyl)-1H-pyrazol-4-yl]methyl}-3H-[1,2,3]triazolo[4,5-b]pyridin-5-amine]: the IC50 on myeloperoxidase (MPO) [1] lay within 101 to 999 nM; at myeloperoxidase (MPO) [2] it was 1 to 100 nM.

Turning to `CC1NCCc2cc(Cn3cc(Cc4cc(N)nc5[nH]nnc45)cn3)ccc21` (centres unmarked) [Example 181, 7-({1-[(1-Methyl-1,2,3,4-tetrahydroisoquinolin-6-yl)methyl]-1H-pyrazol-4-yl}methyl)-3H-[1,2,3]triazolo[4,5-b]pyridin-5-amine], the IC50 against myeloperoxidase (MPO) [1] and at myeloperoxidase (MPO) [2] was 1 to 100 nM in each case.

`Nc1cc(Cc2cnn(Cc3cccc(CN4CCNCC4)c3)c2)c2nn[nH]c2n1` [Example 182, 7-[(1-{[3-(Piperazin-1-ylmethyl)phenyl]methyl}-1H-pyrazol-4-yl)methyl]-3H-[1,2,3]triazolo[4,5-b]pyridin-5-amine]: the IC50 against myeloperoxidase (MPO) [1] lay within 101 to 999 nM; on myeloperoxidase (MPO) [2], 1 to 100 nM.

Take `Nc1cc(Cc2cnn(CCC3CCNCC3)c2)c2nn[nH]c2n1` [Example 183, 7-({1-[2-(Piperidin-4-yl)ethyl]-1H-pyrazol-4-yl}methyl)-3H-[1,2,3]triazolo[4,5-b]pyridin-5-amine]: the values for the IC50 against myeloperoxidase (MPO) [1] and at myeloperoxidase (MPO) [2] were 101 to 999 nM and 1 to 100 nM, respectively.

With `Nc1cc(Cc2cnn(CC3CCN(Cc4ccccc4)C3)c2)c2nn[nH]c2n1` (centres unmarked) [Example 184, 7-({1-[(1-Benzylpyrrolidin-3-yl)methyl]-1H-pyrazol-4-yl}methyl)-3H-[1,2,3]triazolo[4,5-b]pyridin-5-amine], the IC50 at myeloperoxidase (MPO) [1] is 101 to 999 nM; on myeloperoxidase (MPO) [2] it was 1 to 100 nM.

Take `CNc1nc2ccc(Cn3cc(Cc4cc(N)nc5[nH]nnc45)cn3)cc2s1` [Example 186, 6-{[4-({5-Amino-3H-[1,2,3]triazolo[4,5-b]pyridin-7-yl}methyl)-1H-pyrazol-1-yl]methyl}-N-methyl-1,3-benzothiazol-2-amine]: the IC50 was 101 to 999 nM against myeloperoxidase (MPO) [1] and 1 to 100 nM at myeloperoxidase (MPO) [2].

Take `Nc1cc(Cc2cnn(Cc3cccc([C@H]4CNC(=O)C4)c3)c2)c2nn[nH]c2n1` [Example 188, (S)-4-(3-((4-((5-Amino-3H-[1,2,3]triazolo[4,5-b]pyridin-7-yl)methyl)-1H-pyrazol-1-yl)methyl)phenyl)pyrrolidin-2-one]: the half-maximal inhibitory concentration (IC50) against myeloperoxidase (MPO) [1] is 101 to 999 nM; at myeloperoxidase (MPO) [2], 1 to 100 nM.

For `Nc1cc(Cc2cnn(Cc3cccc([C@@H]4CNC(=O)C4)c3)c2)c2nn[nH]c2n1` [Example 189, (R)-4-(3-((4-((5-Amino-3H-[1,2,3]triazolo[4,5-b]pyridin-7-yl)methyl)-1H-pyrazol-1-yl)methyl)phenyl)pyrrolidin-2-one], the IC50 was 101 to 999 nM at myeloperoxidase (MPO) [1] and 1 to 100 nM against myeloperoxidase (MPO) [2].

For `Nc1cc(Cc2cnn(Cc3cccc([C@@H]4CCNC4)c3)c2)c2nn[nH]c2n1` [Example 190], the IC50 at myeloperoxidase (MPO) [1] and on myeloperoxidase (MPO) [2] was 1 to 100 nM each time.

As to `Cc1ccc([C@H]2CNC(=O)C2)cc1Cn1cc(Cc2cc(N)nc3[nH]nnc23)cn1` [Example 192, (4S)-4-(3-{[4-({5-Amino-3H-[1,2,3]triazolo[4,5-b]pyridin-7-yl}methyl)-1H-pyrazol-1-yl]methyl}-4-methylphenyl)pyrrolidin-2-one], the IC50 at myeloperoxidase (MPO) [1] and on myeloperoxidase (MPO) [2] was 101 to 999 nM each time.

`Nc1cc(Cc2cnn(Cc3cc([C@@H]4CCNC4)ccc3C(F)(F)F)c2)c2nn[nH]c2n1` [Example 193, 7-{[1-({5-[(3S)-Pyrrolidin-3-yl]-2-(trifluoromethyl)phenyl}methyl)-1H-pyrazol-4-yl]methyl}-3H-[1,2,3]triazolo[4,5-b]pyridin-5-amine]: the IC50 at myeloperoxidase (MPO) [1] was in the range of 101 to 999 nM; against myeloperoxidase (MPO) [2], 1 to 100 nM.

Regarding `Cc1ccc([C@@H]2CCNC2)cc1Cn1cc(Cc2cc(N)nc3[nH]nnc23)cn1` [Example 194, 7-{[1-({2-Methyl-5-[(3S)-pyrrolidin-3-yl]phenyl}methyl)-1H-pyrazol-4-yl]methyl}-3H-[1,2,3]triazolo[4,5-b]pyridin-5-amine], the IC50 on myeloperoxidase (MPO) [1] is 1000 to 10000 nM; at myeloperoxidase (MPO) [2], 1 to 100 nM.

`Nc1cc(Cc2cnn(Cc3cc(F)cc([C@@H]4CCNC4)c3)c2)c2nn[nH]c2n1` [Example 195, 7-{[1-({3-Fluoro-5-[(3S)-pyrrolidin-3-yl]phenyl}methyl)-1H-pyrazol-4-yl]methyl}-3H-[1,2,3]triazolo[4,5-b]pyridin-5-amine]: the IC50 at myeloperoxidase (MPO) [1] and at myeloperoxidase (MPO) [2] was 1 to 100 nM in each case.

Regarding `Nc1cc(Cc2cnn(Cc3cc(Cl)cc([C@@H]4CCNC4)c3)c2)c2nn[nH]c2n1` [Example 196, 7-{[1-({3-Chloro-5-[(3S)-pyrrolidin-3-yl]phenyl}methyl)-1H-pyrazol-4-yl]methyl}-3H-[1,2,3]triazolo[4,5-b]pyridin-5-amine], the IC50 against myeloperoxidase (MPO) [1] and on myeloperoxidase (MPO) [2] was 1 to 100 nM each time.

As for `COc1cc(Cn2cc(Cc3cc(N)nc4[nH]nnc34)cn2)cc([C@@H]2CCNC2)c1` [Example 197, 7-{[1-({3-Methoxy-5-[(3S)-pyrrolidin-3-yl]phenyl}methyl)-1H-pyrazol-4-yl]methyl}-3H-[1,2,3]triazolo[4,5-b]pyridin-5-amine], the IC50 against myeloperoxidase (MPO) [1] and on myeloperoxidase (MPO) [2] was 1 to 100 nM in each case.

The values are drawn from patent US10407422B2, “Triazolopyridine inhibitors of myeloperoxidase” (priority 2015, dated 2019).
